{
  "source": "patent US20180020708A1",
  "about": "“GLUCOSYRINGIC ACID ANALOGS AS SWEETNESS PROFILE MODIFIERS” (PepsiCo, Inc., priority 2016, published 2018)",
  "key": {"tasters": {"test_system": "tasters", "experiment": "Human tasting of sweet/flavor modifying ingredient in HFCS solution versus HFCS control", "assay_type": "in vivo", "method": "For testing the material as a sweet/flavor modifying ingredient, two samples were prepared: a 4° Brix high-fructose corn syrup (HFCS) control solution and a 4° Brix HFCS solution with a known concentration of test ingredient.\n4° Brix HFCS control solution was prepared by adding 50.89 grams of 78.60° Brix HFCS to 1000 g phosphoric acid base which was prepared by adding phosphoric acid dropwise into 1 L of Aquafina Water until pH 3.1 was obtained. pH was measured using a METTLER TOLEDO pH meter.\nIf any cloudiness persisted, the sample solution was passed through a paper filter. For some low soluble compounds, Branson 2800 Ultra Sonic Bath was used to dissolve the material. Solubility was confirmed by shining a laser pointer through the solution. If no diffraction was observed then it was assumed that the material was soluble.\nFor each test, 12-16 tasters were presented with these two (2) numbered samples and asked to note the sweet quality differences between the two samples. Tasters were also asked to comment on sweetness onset, sweetness linger, overall sugarlike sweetness and other qualities such as bitter taste, metallic note, astringency, cooling sensation, any offnotes and any associated flavors. Tasters were also asked to assess sample odor differences and provide any descriptions.\nTasters were asked to not to eat at least 1 hour before tasting and rinse with Aquafina water at least 5 times between tasting all samples.\nCompound 5 was added at 35 ppm to 4 Brix HFCS in phosphoric acid (as described above). This solution was compared with 4 Brix HFCS in phosphoric acid."}, "human tasting": {"test_system": "human tasting", "experiment": "Human tasting of GSA with high potency sweeteners such as rebaudioside A", "assay_type": "in vivo", "conditions": "pure form"}, "[1]": {"conditions": "35 ppm in 4 Brix HFCS in phosphoric acid (pH 3.1) vs 4 Brix HFCS control"}},
  "data": [
    {"smiles": "COc1cc(C(=O)O)cc(OC)c1O[C@@H]1O[C@H](CO)[C@@H](O)[C@H](O)[C@H]1O", "note": "[Compound 5, Syringic acid 4-O-β-D-glucoside]", "values": [
      {"measurement": "overall sugarlike sweetness reported by tasters", "setting": "tasters; [1]", "result": "more sugar-like"},
      {"measurement": "sweetness onset reported by tasters", "setting": "tasters; [1]", "result": "earlier onset"},
      {"measurement": "sweet quality difference reported by tasters", "setting": "tasters; 35 ppm in 4 Brix HFCS in phosphoric acid (pH 3.1) vs 4 Brix HFCS control, majority of 12-16 tasters noted a difference", "result": "rounder sweetness"},
      {"measurement": "overall sweetness of nutritive sweetener sweetened beverages", "setting": "tasters; pure form, human tasting, nutritive sweetener e.g. high-fructose corn syrup (HFCS)", "result": "effective in increasing the overall sweetness"},
      {"measurement": "sweet quality of sweetened beverages", "setting": "tasters; pure form, human tasting, sweetened beverages", "result": "improving the sweet quality"},
      {"measurement": "bitter, metallic and licorice off-notes of high potency sweeteners", "setting": "human tasting; e.g. 300 ppm solution of Rebaudioside A in phosphate buffer", "result": "decreasing bitter, metallic and licorice off-notes"},
      {"measurement": "sweetness time-of-onset for high potency sweeteners", "setting": "human tasting; high potency sweeteners such as rebaudioside A", "result": "decreasing the sweetness time-of-onset"}
    ]}
  ]
}
